Results published in article PMC4609936, “Pharmacologically targeted NMDA receptor antagonism by NitroMemantine for cerebrovascular disease” (Scientific Reports, 2015).
Where two headings read alike, the source gives them in different places.

Tests used:
[1] = Aqueous solubility; format: physicochemical
[2] = system: NMDAR-operated ion channel; conditions: cited from earlier work
[3] = set-up: method as in PMID 19915593; conditions: memantine 90.3 μmol/kg loading, 4.63 μmol/kg maintenance; cited from earlier work
[4] = target: NMDA-evoked currents in primary rat cortical neurons (Rattus norvegicus, UniProt P35439); assay: Whole-cell patch clamp of NMDA-evoked currents in primary rat cortical neurons; format: cell-based; conditions: 5 μM, −75 mV and +30 mV
[5] = system: NMDAR-mediated component of the EPSC; assay: Evoked EPSCs in hippocampal autapses, whole-cell recording; format: cell-based, rat
[6] = system: spontaneously hypertensive rats (SHR); assay: tMCAO/R focal cerebral ischemia, infarct size by TTC staining; format: in vivo, rat; conditions: for histological protection (infarct size) at equimolar dose: MFD of NitroMemantine (65.8 μmol/kg loading, 3.29 μmol/kg maintenance); for histological protection (infarct, TTC staining): loading i.p. 2-h post occlusion: memantine 90.3 μmol/kg, NitroMemantine 65.8 μmol/kg, maintenance 12 h later, sacrificed at 24 h
Experimental: Because of their known propensity to stroke, similar to human patients with hypertension, we used spontaneous hypertensive rats (SHR, Harlan) to induce tMCAO/R with the intraluminal suture method. Male 200–300 g SHR were anesthetized with 3% isoflurane in 30% oxygen/70% nitrous oxide using an anesthetic vaporizer and flowmeter. Body temperature was maintained at 37 °C with a homeothermic temperature system. A laser Doppler monitor was used to monitor relative cerebral blood flow (rCBF) during the surgical procedure and recovery. rCBF measurements were made immediately after anesthesia, after occlusion of the MCA, just before, and immediately after withdrawal of the suture to initiate reperfusion. To initiate a stroke, a midline incision was made to expose the right common carotid, external carotid, and internal carotid arteries. The occipital artery branches of the external carotid artery were isolated and along with the terminal lingual and maxillary artery branches coagulated with an electrocautery unit. The internal carotid artery was isolated and carefully separated from the adjacent vagus nerve. The pterygopalatine artery was ligated close to its origin, two loosely tied sutures placed around the external carotid artery stump, and a microaneurysm clip applied to the external carotid artery near its bifurcation with the internal carotid artery. A small puncture opening was made in the external carotid artery, a monofilament (intraluminal suture) inserted through the opening, and the sutures tightened around the lumen containing the filament. The microaneurysm clip was removed from the external carotid artery and the monofilament gently advanced from the lumen of the external carotid artery into the internal carotid artery for a distance of ~19 to 20 mm beyond the bifurcation of the common carotid artery until the blood flow dropped (≥80% reduction by rCBF measurement). The suture around the external carotid artery stump was tightened to prevent bleeding. After 2 h, sutures were removed, the filament withdrawn and the incision sutured removed, with rCBF recovering at least 75% at reperfusion. Just prior to reperfusion, rats were administered memantine, NitroMemantine, or memantine-OH via i.p. injection in saline vehicle or an equivalent volume of vehicle alone. […] Maintenance doses (4.63 μmol/kg of memantine and 3.29 μmol/kg of NitroMemantine, equivalent to 1 mg/kg or each) were administered 12 h after the loading dose. […] In subsequent experiments, equimolar memantine, NitroMemantine YQW-036, or memantine-OH was used using the lower NitroMemantine dose described above. The rodents were sacrificed 24-h post occlusion, and the size of brain infarct was evaluated histologically by 2,3,5-triphenyl-2H-tetrazolium chloride (TTC) staining.

[7] = system: developing cerebrocortex; assay: Cerebrocortical apoptosis by TUNEL in neonatal rats; format: in vivo; conditions: P7 rat pups, loading dose, 24 h later
[8] = system: spontaneously hypertensive rats (SHR); assay: Physiological parameters during stroke; format: in vivo, rat; conditions: loading dose, n = 18 SHR
[9] = target: GluN1(N616R)/GluN2A channels (Homo sapiens, UniProt Q05586+Q12879, N616R); assay: Oocyte voltage clamp, redox effect on memantine binding site mutant; format: cell-based; conditions: for effect of GluN1(N616R) mutation on inhibition of current via S-nitrosylation: 200 µM
Chain of GluN1(N616R)/GluN2A channels (Q12879 23-1464, other chains not shown): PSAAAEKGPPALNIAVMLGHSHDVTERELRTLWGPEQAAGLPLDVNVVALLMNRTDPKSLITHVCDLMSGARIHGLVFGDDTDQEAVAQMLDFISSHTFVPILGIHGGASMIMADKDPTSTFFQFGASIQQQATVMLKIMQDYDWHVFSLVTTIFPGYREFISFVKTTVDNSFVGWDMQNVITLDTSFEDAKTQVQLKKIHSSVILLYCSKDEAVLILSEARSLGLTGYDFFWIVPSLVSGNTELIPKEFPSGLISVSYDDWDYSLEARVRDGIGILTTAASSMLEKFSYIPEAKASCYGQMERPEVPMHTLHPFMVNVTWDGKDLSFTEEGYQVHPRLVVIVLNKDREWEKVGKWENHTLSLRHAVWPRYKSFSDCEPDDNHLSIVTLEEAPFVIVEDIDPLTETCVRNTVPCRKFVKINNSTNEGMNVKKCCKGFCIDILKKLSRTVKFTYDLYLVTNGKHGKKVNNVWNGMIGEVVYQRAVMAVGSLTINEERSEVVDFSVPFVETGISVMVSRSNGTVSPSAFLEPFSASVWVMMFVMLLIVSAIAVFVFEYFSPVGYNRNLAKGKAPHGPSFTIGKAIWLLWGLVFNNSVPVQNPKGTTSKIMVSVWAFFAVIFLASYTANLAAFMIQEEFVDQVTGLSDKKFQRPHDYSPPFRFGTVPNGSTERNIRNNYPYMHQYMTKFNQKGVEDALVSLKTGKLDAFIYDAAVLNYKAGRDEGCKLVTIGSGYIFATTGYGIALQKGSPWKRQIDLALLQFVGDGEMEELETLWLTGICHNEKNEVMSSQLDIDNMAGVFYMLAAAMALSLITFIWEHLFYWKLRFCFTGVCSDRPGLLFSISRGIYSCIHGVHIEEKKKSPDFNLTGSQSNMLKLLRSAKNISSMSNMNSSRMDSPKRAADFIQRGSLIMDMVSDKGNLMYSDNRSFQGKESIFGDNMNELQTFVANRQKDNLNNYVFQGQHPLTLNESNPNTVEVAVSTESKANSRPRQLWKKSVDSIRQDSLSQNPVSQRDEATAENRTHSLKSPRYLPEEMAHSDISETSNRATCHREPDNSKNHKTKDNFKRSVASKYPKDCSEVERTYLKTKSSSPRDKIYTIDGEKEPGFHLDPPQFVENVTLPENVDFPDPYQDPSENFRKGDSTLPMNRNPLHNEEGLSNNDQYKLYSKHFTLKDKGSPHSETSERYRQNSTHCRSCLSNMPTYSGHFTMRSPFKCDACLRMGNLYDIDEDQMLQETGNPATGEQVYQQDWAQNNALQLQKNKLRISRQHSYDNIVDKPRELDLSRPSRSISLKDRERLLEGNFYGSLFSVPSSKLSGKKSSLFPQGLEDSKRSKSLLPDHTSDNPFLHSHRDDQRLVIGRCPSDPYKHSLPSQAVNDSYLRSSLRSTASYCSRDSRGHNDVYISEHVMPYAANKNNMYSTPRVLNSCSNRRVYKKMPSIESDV
Experimental: (§1) Two-electrode voltage clamp recordings at −60 or −70 mV were made on oocytes in frog Ringer’s solution two to seven days after injection of NMDAR subunits. Recordings were performed with an Oocyte Clamp OC-725b amplifier (Warner Instrument Corporation, Hamden, CT) using MacLab version 3.5 software (AD Instruments, Milford, MA) at room temperature. […] Both electrodes were filled with 3 M KCl. A solution containing 90 mM NaCl, 1 mM KCl, 10 mM HEPES, 1.5 mM BaCl2, and 10–100 μM glycine, pH 7.5 was used to continuously superfuse the oocytes. Barium, rather than calcium, was used as the divalent cation in order to minimize secondary activation of Ca^2+-activated Cl^− current. In some experiments, 1.2 mM MgCl2 was added to the bath solution. Drugs were dissolved in frog Ringer’s solution and applied by superfusion at a 2 ml/min flow rate. In some cases, to achieve relatively rapid solution exchange, we used an array of pipettes similar to the “sewer pipe” system used in patch-clamp recording. Perfusion artifacts were digitally removed from the traces.
Mutant NMDAR subunits were prepared using the Chameleon^TM double-stranded site-directed mutagenesis kit (Stratagene) according to the manufacturer’s instructions. The entire coding region was sequenced to verify the mutation.

[10] = system: LTP in hippocampal CA1; assay: LTP in hippocampal slices by field recordings; format: cell-based; conditions: 10 μM, high-frequency burst, rat hippocampal slices
[11] = target: recombinant GluN1/GluN2A receptors (Homo sapiens, UniProt Q05586+Q12879); assay: Two-electrode voltage clamp of oocytes, channel block of NMDA-induced current; format: cell-based; conditions: for steady-state channel block of NMDA current: 10 μM (equimolar), Vh −70 mV; for IC50: steady-state, short-term drug addition, holding potential −70 mV, nominal absence of extracellular Mg2+, read-out: IC50 of inhibiting NMDA-induced current
Chain of recombinant GluN1/GluN2A receptors (Q12879 23-1464, other chains not shown): as above
Experimental: […] Recordings were performed with an Oocyte Clamp OC-725b amplifier (Warner Instrument Corporation, Hamden, CT) using MacLab version 3.5 software (AD Instruments, Milford, MA) at room temperature. […] Both electrodes were filled with 3 M KCl. A solution containing 90 mM NaCl, 1 mM KCl, 10 mM HEPES, 1.5 mM BaCl2, and 10–100 μM glycine, pH 7.5 was used to continuously superfuse the oocytes. Barium, rather than calcium, was used as the divalent cation in order to minimize secondary activation of Ca^2+-activated Cl^− current. In some experiments, 1.2 mM MgCl2 was added to the bath solution. Drugs were dissolved in frog Ringer’s solution and applied by superfusion at a 2 ml/min flow rate. In some cases, to achieve relatively rapid solution exchange, we used an array of pipettes similar to the “sewer pipe” system used in patch-clamp recording. Perfusion artifacts were digitally removed from the traces.

[12] = system: GluN1/GluN2A NMDARs; assay: Oocyte voltage clamp, redox (S-nitrosylation) mediated inhibition of NMDA-evoked current; format: cell-based
Experimental: as §1

[13] = system: SNO-GluN1 and SNO-Drp1; assay: Biotin switch assay of S-nitrosylated proteins in brain after stroke; format: in vivo, rat; conditions: SHR, loading dose 2-h post occlusion, sacrificed 90 min thereafter
Experimental: Analysis of S-nitrosylation of NMDA receptors in rat brain was performed by the biotin switch assay, as previously described[48][49]. Free thiols in tissue lysates were blocked with methyl-methanethiosulfonate. Proteins were then precipitated with acetone and resuspended in HEN buffer (250 mM HEPES, pH 7.4, 1 mM EDTA, 0.1 mM neocuproine) plus 1% sodium dodecyl sulfate. Ascorbate was used to selectively reduce nitrosothiols in order to reform free thiol groups, which were subsequently biotinylated using 1 mM biotin-HPDP (Pierce, Rockford, IL). Parallel reactions were performed without ascorbate as a control to ensure specificity of the biotinylated bands. Biotinylated proteins were captured on streptavidin-agarose beads and analyzed by immunoblotting.

[14] = system: spontaneously hypertensive rats (SHR); assay: Neurological/behavioral score after tMCAO/R; format: in vivo, rat; conditions: same doses as histology (memantine 90.3, NitroMemantine 65.8 μmol/kg loading), 24-h post stroke
From the text: Each adult animal underwent a neurologic evaluation[51] immediately after filament removal and again 1 day after reperfusion (prior to sacrifice). Each animal was assigned an objective behavioral score of 0–4: 0 representing no observable neurological deficit; 1 failure to extend the left forepaw; 2 circling to the left; 3 falling to the left; 4 cannot walk spontaneously. The scores obtained 24-h post stroke were averaged for each time point of each treatment group and presented as the neurological score.

[15] = system: spontaneously hypertensive rats (SHR); assay: Morris water maze; format: in vivo, rat; conditions: neuroprotective doses: 65.8 μmol/kg loading i.p., 3.29 μmol/kg every 12 h
Experimental: Adult male spontaneously hypertensive rats (SHR) were treated with either PBS or NitroMemantine (65.8 μmol/kg loading dose, i.p., followed by a 3.29 μmol/kg maintenance dose every 12 h). Each group was comprised of five rats (n = 5). Treatment for both groups commenced 48 h prior to the first day of testing. Both the treatment and water-maze testing were conducted in a blinded fashion. The water maze consisted of a circular pool 150 cm in diameter and 85 cm deep. The pool was filled to cover a moveable platform, black in color, by 1 cm of water. The water was made opaque via the addition of black paint and maintained at room temperature (20–23 °C) for the duration of the five days of testing. A white pool with black water allowed the video camera to successfully track the white rats with maximum contrast. On day 1, the rats were placed in the pool with no platform for 60 s of acclimation. Days 2 through 5 were used for testing. Starting on day 2 and continuing to day 5, rats were trained for 24 total trials (six trials/day) to locate and reach the submerged platform. The platform was kept in the same location for all trials in each session (day), but changed from session to session in a pre-determined order, yielding four unique locations in all. In addition, there were four possible release locations (the four cardinal compass directions at the pool’s perimeter). […]

SMILES: CCCC12CC3(N)CC(CCC)(C1)CC(O[N+](=O)[O-])(C3)C2 [YQW-037]
- aqueous solubility [1]: cannot be dissolved in aqueous solutions

SMILES: CC12CC3CC(C)(C1)CC(N)(C3)C2 [memantine]
- IC50 [2]: 0.5 to 1 µM
- concentration at the mouth of the NMDAR-associated ion channel [3]: 5 to 10 µM
- blockade of NMDA-evoked current, voltage dependence [4]: approximately equivalent degree of blockade at both –75 mV and less blockade at +30 mV
- block of NMDAR-mediated component of the EPSC [5]: blocks neurotransmission to a greater degree than NitroMemantine
- change of EPSC blockade with repeated electrical stimulation (pulses 1–10) [5]: use-dependent
- histological protection (infarct size) at equimolar dose [6]: no significant protection
- histological protection (infarct, TTC staining) [6]: offer histological protection
- cerebrocortical neuronal apoptosis (TUNEL) [7]: do not cause
- physiological parameters (temperatures, blood pressure, metabolic panel) [8]: not significantly affected

SMILES: N[C@@H](CSN=O)C(=O)O [SNOC, S-nitrosocysteine, reference compound]
- effect of GluN1(N616R) mutation on inhibition of current via S-nitrosylation [9]: did not affect inhibition

SMILES: C[C@]12N[C@H](Cc3ccccc31)c1ccccc12 [MK-801, reference compound]
- effect on LTP induction [10]: completely inhibited LTP induction

SMILES: CC12CC3(C)CC(N)(C1)CC(O[N+](=O)[O-])(C2)C3 [YQW-035]
- steady-state channel block of NMDA current [11]: less channel block than memantine but more than amantadine
- IC50 [11]: 6.3 µM
- effect of GluN1(N616R) mutation on inhibition of current via S-nitrosylation [9]: eliminated inhibition

SMILES: NC12CC3CC(CC(C3)C1)C2 [amantadine, reference compound]
- steady-state channel block of NMDA current [11]: inhibited less NMDA current at steady state than equimolar memantine

SMILES: CCC12CC3(N)CC(CC)(C1)CC(O[N+](=O)[O-])(C3)C2 [YQW-036]
- aqueous solubility [1]: lower solubility in aqueous solution
- effect on LTP induction [10]: did not inhibit LTP
- steady-state channel block of NMDA current [11]: approximately the same degree as memantine
- inhibition of NMDA-evoked current in the presence of extracellular Mg2+ ([11]; 10 µM, 1.2 mM Mg2+, NMDA 100 µM, holding potential −40 mV): inhibited
- IC50 [11]: 2.4 µM
- inhibition of NMDA-evoked current under conditions used to observe S-nitrosylation ([12]; 100 μM, Vh −60 mV): inhibited NMDA-evoked current
- prolonged inhibitory effect after prior MTSEA or mutation of redox-active cysteines ([12]; prior addition of MTSEA or mutation of redox-active cysteines in the NMDAR): largely abrogated
- blockade of NMDA-evoked current, voltage dependence [4]: approximately equivalent degree of blockade at both –75 mV and less blockade at +30 mV
- S-nitrosylation of Drp1 (SNO-Drp1) [13]: not significantly affected
- S-nitrosylation of the GluN1 subunit (SNO-GluN1), ipsilateral to stroke [13]: significant increase
- neurological/behavioral score [14]: showed a protective effect
- change of EPSC blockade with repeated electrical stimulation (pulses 1–10) ([5]; 10 μM): did not significantly increase
- block of NMDAR-mediated component of the EPSC ([5]; 10 μM, 20 μM CNQX present): blocked to a lesser extent
- Morris water maze performance [15]: not affected
- redox-mediated activity on GluN1(N616R) mutant ([9]; 100 μM): abrogated
- histological protection (infarct size) at equimolar dose [6]: significant benefit
- histological protection (infarct, TTC staining) [6]: protected to a greater extent than memantine
- histological protection (infarct, TTC staining) ([6]; listed as NitroMemantine): offer histological protection
- cerebrocortical neuronal apoptosis (TUNEL) [7]: do not cause
- physiological parameters (temperatures, blood pressure, metabolic panel) [8]: not significantly affected

SMILES: N[C@H](CCCP(=O)(O)O)C(=O)O [D-AP5, (2R)-amino-5-phosphonopentanoate]
- block of NMDAR component of the EPSC ([5]; 50 μM, control): completely blocked
